Tests used:
[1] = target: KRas WT (Homo sapiens, UniProt P01116); experiment: KRas binding assay (TR-FRET displacement), KRas WT; details: single point, 10 nM compound
[2] = tested on: H727 cells; experiment: Inhibition of KRas-mediated phosphorylation of ERK (Cisbio HTRF pERK), H727 cells; format: cell-based; details: Homo sapiens; for IC50: NCI-H727, 3 h, 3 hr compound incubation, Cisbio pERK HTRF
[3] = tested on: H358 cells; experiment: Inhibition of KRas-mediated phosphorylation of ERK (Cisbio HTRF pERK), H358 cells; format: cell-based; details: Homo sapiens; for IC50: NCI-H358, 3 h, 3 hr compound incubation, Cisbio pERK HTRF; for inhibition at 0.1 µM: NCI-H358, single point at 100 nM, 3 hrs compound incubation
[4] = tested on: HCT116 cells; experiment: Inhibition of KRas-mediated phosphorylation of ERK (Cisbio HTRF pERK), HCT116 cells; format: cell-based; details: Homo sapiens, HCT-116, 3 h, 3 hr compound incubation, Cisbio pERK HTRF
[5] = target: KRas G12C (Homo sapiens, UniProt P01116, G12C); format: binding; details: single point, 10 nM compound, read-out: Binding to KRas (% inhibition at 10 nM) G12C
Chain of KRas G12C (P01116 1-169 isoform P01116-2 G12C): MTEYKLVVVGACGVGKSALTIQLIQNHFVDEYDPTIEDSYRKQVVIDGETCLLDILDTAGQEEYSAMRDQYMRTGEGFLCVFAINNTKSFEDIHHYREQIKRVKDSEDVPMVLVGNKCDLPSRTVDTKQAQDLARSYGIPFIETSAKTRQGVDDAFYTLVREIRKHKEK

[6] = target: KRas G12A (Homo sapiens, UniProt P01116, G12A); format: binding; details: single point, 10 nM compound, read-out: Binding to KRas (% inhibition at 10 nM) G12A
Chain of KRas G12A (P01116 1-169 isoform P01116-2 G12A): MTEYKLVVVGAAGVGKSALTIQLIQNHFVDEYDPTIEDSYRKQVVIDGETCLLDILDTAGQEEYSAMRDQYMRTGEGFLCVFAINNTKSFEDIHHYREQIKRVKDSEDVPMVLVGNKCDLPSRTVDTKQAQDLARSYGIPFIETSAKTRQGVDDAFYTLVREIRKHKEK

[7] = tested on: PSN1 cells; experiment: Inhibition of KRas-mediated phosphorylation of ERK (Cisbio HTRF pERK), PSN1 cells; format: cell-based; details: Homo sapiens, PSN1, 3 h, 3 hour compound incubation, Cisbio pERK HTRF
Outline: (§1)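 Growth medium is RPMI with 10% FBS, and each well receives 6,000 cells on the first day of the protocol.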

[8] = target: KRas G13D (Homo sapiens, UniProt P01116, G13D); format: binding; details: single point, 10 nM compound, read-out: Binding to KRas (% inhibition at 10 nM) G13D
Chain of KRas G13D (P01116 1-169 isoform P01116-2 G13D): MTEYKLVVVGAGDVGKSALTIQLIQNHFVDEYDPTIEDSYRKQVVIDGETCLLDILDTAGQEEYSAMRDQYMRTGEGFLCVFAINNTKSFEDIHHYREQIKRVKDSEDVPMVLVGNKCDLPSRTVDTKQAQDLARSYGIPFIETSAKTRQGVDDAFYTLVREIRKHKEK

[9] = target: KRas G12R (Homo sapiens, UniProt P01116, G12R); experiment: biochemical; details: Binding to KRas (IC50 nM) G12R, TR-FRET displacement, KRas G12R
Chain of KRas G12R (P01116 1-169 isoform P01116-2 G12R): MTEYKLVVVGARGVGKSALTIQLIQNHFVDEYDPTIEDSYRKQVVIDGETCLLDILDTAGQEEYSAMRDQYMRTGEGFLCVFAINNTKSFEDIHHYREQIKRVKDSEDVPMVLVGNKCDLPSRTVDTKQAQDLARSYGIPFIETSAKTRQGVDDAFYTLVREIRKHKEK

[10] = target: KRas G12S (Homo sapiens, UniProt P01116, G12S); format: binding; details: single point, 10 nM compound, read-out: Binding to KRas (% inhibition at 10 nM) G12S
Chain of KRas G12S (P01116 1-169 isoform P01116-2 G12S): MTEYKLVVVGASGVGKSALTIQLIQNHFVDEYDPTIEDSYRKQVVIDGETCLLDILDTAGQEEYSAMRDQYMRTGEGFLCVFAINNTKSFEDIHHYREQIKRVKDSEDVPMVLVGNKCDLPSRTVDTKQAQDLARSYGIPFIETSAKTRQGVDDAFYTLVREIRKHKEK

[11] = tested on: A549 cells; experiment: Inhibition of KRas-mediated phosphorylation of ERK (Cisbio HTRF pERK), A549 cells; format: cell-based; details: Homo sapiens; for IC50: A549, 3 h, 3 hr compound incubation, Cisbio pERK HTRF; for inhibition at 0.1 µM: single point at 100 nM, 3 hrs compound incubation
[12] = target: KRas Q61H (Homo sapiens, UniProt P01116, Q61H); experiment: KRas binding assay (TR-FRET displacement), KRas Q61H; details: single point, 10 nM compound
Chain of KRas Q61H (P01116 1-169 isoform P01116-2 Q61H): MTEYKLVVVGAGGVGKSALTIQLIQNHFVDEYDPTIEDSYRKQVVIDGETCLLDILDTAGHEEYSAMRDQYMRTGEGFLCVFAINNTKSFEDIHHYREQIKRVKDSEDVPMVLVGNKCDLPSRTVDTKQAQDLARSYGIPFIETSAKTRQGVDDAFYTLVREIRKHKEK

[13] = tested on: ASPC1 cells; experiment: Inhibition of KRas-mediated phosphorylation of ERK (Cisbio HTRF pERK), ASPC1 cells; format: cell-based; details: Homo sapiens, AsPC-1 cells; for IC50: ASPC1, 3 h, 3 hr compound incubation, Cisbio pERK HTRF
[14] = tested on: H460 cells; experiment: Inhibition of KRas-mediated phosphorylation of ERK (Cisbio HTRF pERK), H460 cells; format: cell-based; details: Homo sapiens, NCI-H460, 3 h, 3 hr compound incubation, Cisbio pERK HTRF
[15] = target: KRas G12V (Homo sapiens, UniProt P01116, G12V); experiment: biochemical; details: Binding to KRas (IC50 nM) G12V, TR-FRET displacement, KRas G12V
Chain of KRas G12V (P01116 1-169 isoform P01116-2 G12V): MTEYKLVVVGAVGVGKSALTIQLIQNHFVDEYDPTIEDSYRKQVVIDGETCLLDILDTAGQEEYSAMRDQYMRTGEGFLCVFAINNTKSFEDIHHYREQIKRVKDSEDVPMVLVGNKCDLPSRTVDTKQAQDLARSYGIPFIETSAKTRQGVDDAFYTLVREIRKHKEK

[16] = tested on: MKN1 cells; experiment: Inhibition of KRas-mediated phosphorylation of ERK (Cisbio HTRF pERK), MKN1 cells; format: cell-based; details: Homo sapiens, MKN-1, 3 hour compound incubation, Cisbio pERK HTRF
Outline: as §1

[17] = target: KRas G12D (Homo sapiens, UniProt P01116, G12D); experiment: biochemical; details: Binding to KRas (IC50 nM) G12D, TR-FRET displacement, KRas G12D
Chain of KRas G12D (P01116 1-169 isoform P01116-2 G12D): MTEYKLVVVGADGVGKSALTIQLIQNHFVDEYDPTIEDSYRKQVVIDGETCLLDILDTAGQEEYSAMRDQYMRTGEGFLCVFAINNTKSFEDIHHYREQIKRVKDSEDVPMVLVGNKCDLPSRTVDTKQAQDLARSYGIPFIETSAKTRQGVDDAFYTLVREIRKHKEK

Chain of KRas WT (P01116 1-169 isoform P01116-2): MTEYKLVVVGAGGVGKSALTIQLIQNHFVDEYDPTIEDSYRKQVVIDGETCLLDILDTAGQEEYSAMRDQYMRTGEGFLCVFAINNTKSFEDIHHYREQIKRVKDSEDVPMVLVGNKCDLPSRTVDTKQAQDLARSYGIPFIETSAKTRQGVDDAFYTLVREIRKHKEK

SMILES	inhibition at 0.01 µM [1]	IC50 [2]	IC50 [3]	inhibition at 0.1 µM [3]	IC50 [4]	inhibition at 0.01 µM [5]	inhibition at 0.01 µM [6]	IC50 [7]	inhibition at 0.01 µM [8]	IC50 [9]	inhibition at 0.01 µM [10]	IC50 [11]	inhibition at 0.1 µM [11]	inhibition at 0.01 µM [12]	IC50 [13]	IC50 [14]	IC50 [15]	IC50 [16]	IC50 [17]	other results
CCc1c(F)ccc2cc(O)cc(N3CCc4c(nc(OC[C@@]56CCCN5C[C@H](F)C6)nc4N4CCCn5nc(C(=O)NCCOCCOC)cc5C4)C3)c12 [Example 374, 5-(7-(8-ethyl-7-fluoro-3-hydroxynaphthalen-1-yl)-2-(((2R,7aS)-2-fluorohexahydro-1H-pyrrolizin-7a-yl)methoxy)-5,6,7,8-tetrahydropyrido[3,4-d]pyrimidin-4-yl)-N-(2-(2-methoxyethoxy)ethyl)-5,6,7,8-tetrahydro-4H-pyrazolo[1,5-a][1,4]diazepine-2-carboxamide]	95%	6 nM	5 nM	99%	105 nM	99%	96%	4820 nM	94%	< 2 nM	99%	25 nM	57%	96%	4 nM	35 nM	< 2 nM	13.5 nM	< 2 nM	–
CCc1c(F)ccc2cc(O)cc(N3CCc4c(nc(OC[C@@]56CCCN5C[C@H](F)C6)nc4N4CCCn5nc(C(=O)NCCOC)cc5C4)C3)c12 [Example 375, 5-(7-(8-ethyl-7-fluoro-3-hydroxynaphthalen-1-yl)-2-(((2R,7aS)-2-fluorohexahydro-1H-pyrrolizin-7a-yl)methoxy)-5,6,7,8-tetrahydropyrido[3,4-d]pyrimidin-4-yl)-N-(2-methoxyethyl)-5,6,7,8-tetrahydro-4H-pyrazolo[1,5-a][1,4]diazepine-2-carboxamide]	93%	7 nM	4 nM	102%	91 nM	98%	94%	3500 nM	93%	< 2 nM	98%	20 nM	68%	93%	4 nM	36 nM	< 2 nM	16.6 nM	< 2 nM	–
CCc1c(F)ccc2cc(O)cc(N3CCc4c(nc(OC[C@@]56CCCN5C[C@H](F)C6)nc4N4CCCn5nc(C(=O)NC6CCC6)cc5C4)C3)c12 [Example 378, N-cyclobutyl-5-(7-(8-ethyl-7-fluoro-3-hydroxynaphthalen-1-yl)-2-(((2R,7aS)-2-fluorohexahydro-1H-pyrrolizin-7a-yl)methoxy)-5,6,7,8-tetrahydropyrido[3,4-d]pyrimidin-4-yl)-5,6,7,8-tetrahydro-4H-pyrazolo[1,5-a][1,4]diazepine-2-carboxamide]	91%	7 nM	9 nM	105%	160 nM	97%	90%	5170 nM	90%	< 2 nM	96%	39 nM	69%	91%	3 nM	46 nM	< 2 nM	26.2 nM	< 2 nM	–
CCNC(=O)c1nn2c(c1C)CN(c1nc(OC[C@@]34CCCN3C[C@H](F)C4)nc3c1CCN(c1cc(O)cc4ccc(F)c(CC)c14)C3)CCC2 [Example 379, N-ethyl-5-(7-(8-ethyl-7-fluoro-3-hydroxynaphthalen-1-yl)-2-(((2R,7aS)-2-fluorohexahydro-1H-pyrrolizin-7a-yl)methoxy)-5,6,7,8-tetrahydropyrido[3,4-d]pyrimidin-4-yl)-3-methyl-5,6,7,8-tetrahydro-4H-pyrazolo[1,5-a][1,4]diazepine-2-carboxamide]	93%	3 nM	3 nM	105%	159 nM	99%	96%	5330 nM	92%	< 2 nM	98%	17 nM	91%	92%	2 nM	33 nM	< 2 nM	12.3 nM	< 2 nM	–
CCc1c(F)ccc2cc(O)cc(N3CCc4c(nc(OC[C@@]56CCCN5C[C@H](F)C6)nc4N4CCCn5nc(C(=O)NC)c(C)c5C4)C3)c12 [Example 380, 5-(7-(8-ethyl-7-fluoro-3-hydroxynaphthalen-1-yl)-2-(((2R,7aS)-2-fluorohexahydro-1H-pyrrolizin-7a-yl)methoxy)-5,6,7,8-tetrahydropyrido[3,4-d]pyrimidin-4-yl)-N,3-dimethyl-5,6,7,8-tetrahydro-4H-pyrazolo[1,5-a][1,4]diazepine-2-carboxamide]	93%	5 nM	3 nM	93%	95 nM	99%	96%	4720 nM	94%	< 2 nM	99%	2 nM	81%	95%	2 nM	30 nM	< 2 nM	10.8 nM	< 2 nM	inhibition at 0.1 µM ([2]; NCI-H727, single point at 100 nM, 3 hrs compound incubation): 69%; inhibition at 0.1 µM ([13]; ASPC1, single point at 100 nM, 3 hrs compound incubation): 94%
CCc1c(F)ccc2cc(O)cc(N3CCc4c(nc(OC[C@@]56CCCN5C[C@H](F)C6)nc4N4CCCn5nc(C(=O)N(C)C(C)C)cc5C4)C3)c12 [Example 381, 5-(7-(8-ethyl-7-fluoro-3-hydroxynaphthalen-1-yl)-2-(((2R,7aS)-2-fluorohexahydro-11H-pyrrolizin-7a-yl)methoxy)-5,6,7,8-tetrahydropyrido[3,4-d]pyrimidin-4-yl)-N-isopropyl-N-methyl-5,6,7,8-tetrahydro-4H-pyrazolo[1,5-a][1,4]diazepine-2-carboxamide]	97%	3 nM	1 nM	98%	45 nM	99%	97%	3620 nM	97%	< 2 nM	99%	7 nM	85%	97%	2 nM	11 nM	< 2 nM	7 nM	< 2 nM	–
CCc1c(F)ccc2cc(O)cc(N3CCc4c(nc(OC[C@@]56CCCN5C[C@H](F)C6)nc4N4CCCn5nc(C(=O)N(C)CCOC)cc5C4)C3)c12 [Example 382, 5-(7-(8-ethyl-7-fluoro-3-hydroxynaphthalen-1-yl)-2-(((2R,7aS)-2-fluorohexahydro-1H-pyrrolizin-7a-yl)methoxy)-5,6,7,8-tetrahydropyrido[3,4-d]pyrimidin-4-yl)-N-(2-methoxyethyl)-N-methyl-5,6,7,8-tetrahydro-4H-pyrazolo[1,5-a][1,4]diazepine-2-carboxamide]	97%	4 nM	1 nM	99%	51 nM	100%	98%	2290 nM	98%	< 2 nM	99%	15 nM	80%	97%	2 nM	25 nM	< 2 nM	8.4 nM	< 2 nM	–

— patent US20250368649A1, “TETRAHYDROPYRIDOPYRIMIDINE PAN-KRAS INHIBITORS” (Mirati Therapeutics, Inc., priority 2022, published 2025)
